Data: patent US7166270B1, “Methods of screening compounds useful for prevention of infection or pathogenicity” (The Netherlands Cancer Institute, priority 1995, dated 2007)

System: Caenorhabditis elegans
Experiment: C. elegans fast killing assay on PGS/PG agar
Type: in vivo
Experimental: The rate of killing observed under these conditions is defined as “slow killing.” Briefly, under the slow killing conditions, 5 μl of an overnight liquid culture of PA14 is spread on the center of an NGM (or M9) agar plate and grown for 37° C. for 24 hours. The plates are then allowed to cool to room temperature for several hours. Worms at the fourth larval stage (L4) are added to the agar but not in contact with the bacterial lawn. The worms typically move toward the bacterial lawn and commence feeding. In contrast, when PA14 worms were grown on peptone-glucose-sorbitol (PGS), a richer medium of higher osmolarity, a different result was obtained. When L4 worms were placed on PGS plates, the worms became sluggish, then paralyzed, and then died within 4–24 hours (FIG. 5). Some worms died even before coming into direct contact with the bacterial lawn. This more rapid killing on PGS agar is termed “fast killing.”
Nematode Killing Assay. Worm killing by P. aeruginosa was performed in a plate assay. For the fast killing assay, 5 μl of an overnight King's B (King et al. (1954) J. Lab. Clin. Med. 44:301–307) culture of PA14, or the test strains, were spread on 3.5 cm diameter plates containing PGS or PG agar. A bacterial lawn of about 2 cm diameter grew in the center of plate after incubation at 37° C. for 24 hours. After cooling to room temperature (ranges from 4–12 hours after removal from 37° C. incubator), 40 worms were added to the agar. Unless otherwise stated all worm strains were cultured at 20° C., and the fourth larval (L4) stage was used. The experiments were performed in 3–4 replicates per strain. Bristol N2 was used as the wild-type strain and E. coli OP50 for the negative control. Plates seeded with worms were incubated in 25° C. Worm mortality was scored at various time points. A worm was considered dead when no movement was detectable when touched lightly with an eye-lash pick. Slow killing assays were performed generally as described above.

Molecule: [Cl][Fe]([Cl])[Cl] [FeCl3]
- effect on PA14 fast killing of C. elegans (in words) (100 μM added to PGS): significantly reduced killing

Molecule: OC[C@@H](O)[C@@H](O)[C@H](O)[C@@H](O)CO [sorbitol]
- effect on PA14 fast killing of C. elegans (in words) (0.15 M added to Peptone-Glucose medium, compared to 0.1 M or no sorbitol): significantly increased the rate of killing

Molecule: EDDA
- effect on PA14 fast killing of C. elegans (in words) (400 μM added to PGS): did not significantly affect fast killing
